Source: patent publication US20040198770A1, “Uses for l-tetrahydropalmatine” (PharmacoGenetics Limited, priority 2003, published 2004)

How the values were obtained:
Type in all cases: in vivo
ICR mice [1] = assay: Hole-board test; conditions: 300 s
Procedure: (§1) ICR mice of male sex, weighing 15.6-17.8 g were used, provided by Experimental Animal Centre of HKUST, housed in groups, given food and water ad libitum and maintained on a 12 hour light: 12 hour dark cycle. All of the experimental groups had 12 animals per group.
(§2) For each experimental animal, administered orally 0.2 ml (pH 7.2) of respective solvent at concentrations as stated above for each group (or double-distilled water for normal control group) one hour before testing.
The hole-board apparatus is a 0.5 cm thick walled wood arena of 60×60×30 cm, with four 5 cm equidistant 4 cm diameter holes spaced on the floor. The mice are placed on the centre of the arena and the number of head-dip on the hole and the number of rearing are counted during a 300 second test period (File S. E. et al., “The effects of triazolobenzo-diazepines in two animal tests of anxiety and in the holeboard.”, Br J Pharmacol. 1985 November; 86(3): 729-35; PMID: 2866006). After each trial, the floor of the apparatus was wiped and dried thoroughly with tissue to remove traces of the previous path.

ICR mice [2] = assay: Horizontal-wire test; conditions: for No. of falling: Table 1, mice; for No. of falling / Number of falling: 60 s; for Number of falling: Table 2, mice
Procedure: as §1, §2
Mice are lifted by the tail and allowed to grasp a horizontally strung wire (1 mm diameter, 20 cm long and placed 20 cm above the table) with their forepaws and released (Bonetti E. P. et al., Psychopharmacology (Berl). 1982; 78(1): 8-18; PMID: 6292984). For each experimental animal, the number of falling onto the table in 60 seconds was determined.
There is no significant difference between same dosage l-THP and dl-THP groups.

ICR mice [3] = assay: Locomotor activity test; conditions: for No. of Transitions: mice, 1 h before test, 300 s
Procedure: as §1, §2
An apparatus with a brown light-resistant box having dimensions of 60×60×30 cm was used to perform the test. It consists of four cylindrical plastic boxes of 20 cm diameter, each having 6 equally distributed infrared photocells. The locomotor activity was counted automatically during a 300 second test period. A decrease in the number of transitions reflects a decrease in locomotor activity.
Physical reflections existed for this group and there was no abnormal phenomenon in respiratory circulation.

ICR mice [4] = assay: Elevated plus-maze test; conditions: for Closed arm entry % / Closed arm entry No. / Open arm entry % / Open arm entry No. / Total no. of arm entries: 300 s; for Closed arm Time spent / Closed arm time spent % / Open arm Time spent / Open arm time spent %: 300 s test
Procedure: as §1, §2
The elevated plus-maze is made of 0.5 cm thick wood as a horizontal cross consisting of two open arms (25×5 cm) and two opposite arms (25×5 cm) enclosed by 10 cm high walls. The arms extend from a central platform having dimensions of 5×5 cm. The plus-maze is elevated to a height of 40 cm from the floor. The maze is put inside a box with dimensions of 30×30×50 cm. The mice are placed on the central platform of the maze facing a closed arm. The number of arm entries and the time spent in the open and closed arm are counted for 300 seconds (Pellow S. et al., “Anxiolytic and anxiogenic drug effects on exploratory activity in an elevated plus-maze: a novel test of anxiety in the rat”, Pharmacol Biochem Behav. 1986 March; 24(3): 525-9; PMID: 2871560). Arm entry was defined as one half body entered into the arm.

[5] = mice, oral 0.5 mg/kg, 0.5 mg/kg

## COc1cc2c(cc1OC)[C@@H]1Cc3ccc(OC)c(OC)c3CN1CC2 [l-THP, l-tetrahydropalmatine]
ICR mice [1]; oral 0.05 mg/kg
  Head-dip No.: 15.83 ± 3.01
  Rearing No.: 26.83 ± 5.51
  Total No. (head-dip and rearing): 42.67 ± 6.64
ICR mice [1]; oral 0.1 mg/kg
  Head-dip No.: 18.73 ± 6.56
  Rearing No.: 20.36 ± 9.54
ICR mice [1]; oral 0.5 mg/kg
  Rearing No.: 27.08 ± 13.64
  Total No. (head-dip and rearing): 41.00 ± 10.20
ICR mice [1]; oral 1.0 mg/kg
  Rearing No.: 23.50 ± 9.27
ICR mice [1]; oral 2.5 mg/kg
  Head-dip No.: 15.67 ± 4.00
  Rearing No.: 22.42 ± 4.06
  Total No. (head-dip and rearing): 38.08 ± 6.43
ICR mice [1]; oral 5.0 mg/kg
  Head-dip No.: 8.75 ± 5.56
ICR mice [2]; oral 0.5 mg/kg
  No. of falling: 0.4 ± 0.49
  Number of falling: 0.40 ± 0.48
ICR mice [2]; oral 1.0 mg/kg
  No. of falling: 0.4 ± 0.48
  Number of falling: 0.40 ± 0.48
ICR mice [2]; oral 5.0 mg/kg
  No. of falling: 0.5 ± 0.67
  Number of falling: 0.50 ± 0.67
ICR mice [2]; oral 10 mg/kg
  No. of falling: 1.0 ± 0.77
  Number of falling: 1.00 ± 0.77
ICR mice [2]; oral 20 mg/kg
  No. of falling: 4.5 ± 1.50
ICR mice [2]; oral 40 mg/kg
  No. of falling: 8.5 ± 3.55
ICR mice [2]; oral 30 mg/kg
  Number of falling: 18.50 ± 3.54
ICR mice [2]; mice, oral
  oral dosage at which there is no myorelaxation effect: less than 20 mg/kg
ICR mice [3]; 20 mg/kg
  medicinal effect under high dosage: inhibitive effect on CNS and myorelaxation
ICR mice [3]; oral 0.5 mg/kg
  No. of Transitions: 121.1 ± 9.53
ICR mice [3]; oral 1.0 mg/kg
  No. of Transitions: 111.3 ± 11.91
ICR mice [3]; oral 5.0 mg/kg
  No. of Transitions: 104.5 ± 10.73
ICR mice [3]; oral 10 mg/kg
  No. of Transitions: 101.4 ± 15.41
ICR mice [3]; oral 20 mg/kg
  No. of Transitions: 53.0 ± 12.72
ICR mice [3]; oral 40 mg/kg
  No. of Transitions: 13.6 ± 5.27
ICR mice [4]; experimental mice
  Optimal dosage for anxiolytic effect: 1 mg/kg
ICR mice [4]; experimental mice, 5 mg/kg
  medicinal effect under medium dosage: sedative and hypnotic effect
ICR mice [4]; experimental mice, 0.1-2.5 mg/kg
  medicinal effect under low dosage: anxiolytic effect
ICR mice [4]; mice, oral
  most medicinal dosage (time spent and percentage of open arm entry): 1 mg/kg
ICR mice [4]; mice, oral 0.05 mg/kg
  Closed arm entry %: 67.89 ± 6.77%
  Closed arm entry No.: 19.33 ± 5.55
  Open arm entry %: 32.11 ± 6.77%
  Open arm entry No.: 8.75 ± 1.36
  Total no. of arm entries: 28.08 ± 5.62
  Closed arm Time spent: 225.42 ± 12.13
  Closed arm time spent %: 80.96 ± 3.55%
  Open arm Time spent: 53.08 ± 10.40
  Open arm time spent %: 19.04 ± 3.55%
ICR mice [4]; mice, oral 0.1 mg/kg
  number of open arm entry of l-THP greater than dl-THP by: 31.7%
  percentage of open arm entry of l-THP greater than dl-THP by: 40.4%
  Closed arm entry %: 57.17 ± 4.26%
  Closed arm entry No.: 15.27 ± 2.41
  Open arm entry %: 42.83 ± 4.26 %
  Total no. of arm entries: 26.82 ± 4.38
  Closed arm Time spent: 217.27 ± 15.11
  Closed arm time spent %: 76.33 ± 5.61%
  Open arm Time spent: 68.18 ± 20.68
  Open arm time spent %: 23.67 ± 5.61%
ICR mice [4]; mice, oral 0.5 mg/kg
  Closed arm entry %: 58.18 ± 6.37%
  Closed arm entry No.: 16.17 ± 1.95
  Total no. of arm entries: 27.92 ± 4.08
  Closed arm Time spent: 205.33 ± 20.02
  Closed arm time spent %: 74.19 ± 7.09%
  Open arm Time spent: 71.75 ± 21.08
ICR mice [4]; [5]
  Open arm time spent %: 25.81 ± 7.09 %
  Open arm entry %: 41.82 ± 6.37 %
ICR mice [4]; mice, oral 1.0 mg/kg
  Closed arm entry %: 55.53 ± 3.10%
  Closed arm entry No.: 14.92 ± 1.93
  Open arm entry %: 44.47 ± 3.10 %
  Total no. of arm entries: 26.92 ± 3.61
  Closed arm Time spent: 204.00 ± 16.42
  Closed arm time spent %: 71.94 ± 6.70%
ICR mice [4]; mice, oral 1.0 mg/kg, 1 mg/kg
  Open arm time spent %: 28.06 ± 6.70 %
ICR mice [4]; mice, oral 2.5 mg/kg
  Closed arm entry %: 59.61 ± 4.06%
  Closed arm entry No.: 15.92 ± 2.15
  Open arm entry %: 40.39 ± 4.09 %
  Open arm entry No.: 10.92 ± 2.50
  Total no. of arm entries: 26.83 ± 4.20
  Closed arm Time spent: 227.83 ± 12.15
  Closed arm time spent %: 78.04 ± 4.70%
  Open arm Time spent: 64.75 ± 16.70
  Open arm time spent %: 21.96 ± 4.70%
ICR mice [4]; mice, oral 5 mg/kg
  number of open arm entry of l-THP less than dl-THP by: 357.4%
  percentage of open arm entry of l-THP less than dl-THP by: 69.5%
ICR mice [4]; mice, oral 5.0 mg/kg
  Closed arm entry %: 70.37 ± 5.03%
  Closed arm entry No.: 7.83 ± 3.43
  Closed arm Time spent: 253.25 ± 24.32
  Closed arm time spent %: 88.54 ± 5.48%
ICR mice [4]; mice, oral 5.0 mg/kg, 5 mg/kg
  Open arm time spent %: 11.46 ± 5.48 %
  Open arm entry %: 29.63 ± 5.03%
ICR mice [4]; mice, oral 0.1-2.5 mg/kg
  increase of percentage of open arm entry compared to the normal control group: 39.31-48.14%
  increase of percentage of time spent in open arm compared to the normal control group: 27.19-50.78%
